# In PubChem BioAssay (NCI):
#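 Each compound was tested at five concentrations against cells in 96-well plates for 48 hours. At the GI50, growth is halved. TGI denotes the concentration required for complete inhibition of growth.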
# Assays:
# Assay in all cases: inhibition of tumour cell growth, NCI panel, 48 h
# [1] = system: NCI/ADR-RES ovarian
# [2] = system: A498 renal
# [3] = system: NCI-H23 lung
# [4] = system: NCI-H226 lung
# [5] = system: MCF7 breast
# [6] = system: K-562 leukemia
# [7] = system: 786-0 renal
# [8] = system: OVCAR-5 ovarian
# [9] = system: SF-539 CNS
# [10] = system: HCT-15 colon
# [11] = system: HOP-62 NSCLC
# [12] = system: OVCAR-8 ovarian
# [13] = system: SK-OV-3 ovarian
# [14] = system: SN12C renal
# [15] = system: HOP-92 NSCLC
# [16] = system: SR leukemia
# [17] = system: EKVX NSCLC
# [18] = system: UACC-257 melanoma
# [19] = system: CAKI-1 renal
# [20] = system: T-47D breast
# [21] = system: RPMI-8226 leukemia
# [22] = system: HL-60(TB) leukemia
# [23] = system: PC-3 prostate
# [24] = system: MDA-MB-435
# [25] = system: BT-549 breast
# [26] = system: UO-31 renal
# [27] = system: DU-145 prostate
# [28] = system: NCI-H460 lung
# [29] = system: ACHN renal
# [30] = system: IGROV1 ovarian
# [31] = system: COLO 205 colon
# [32] = system: MOLT-4 leukemia
# [33] = system: SNB-19 CNS
# [34] = system: CCRF-CEM leukemia
# [35] = system: KM12 colon
# [36] = system: HCC-2998 colon
# [37] = system: NCI-H522 lung
# [38] = system: A549 NSCLC
# [39] = system: SK-MEL-2 melanoma
# [40] = system: SF-295 CNS
# [41] = system: M14 melanoma
# [42] = system: OVCAR-3 ovarian
# [43] = system: SK-MEL-5 melanoma
# [44] = system: TK-10 renal
# [45] = system: MDA-MB-468 breast
# [46] = system: SNB-75 CNS
# [47] = system: RXF 393 renal
# [48] = system: MALME-3M melanoma
# [49] = system: SF-268 CNS
# [50] = system: HT29 colon
# [51] = system: HCT-116 colon
# [52] = system: OVCAR-4 ovarian
# [53] = system: U251 CNS
# [54] = system: SK-MEL-28 melanoma
# [55] = system: UACC-62 melanoma
# [56] = system: HS 578T breast
# [57] = system: LOX IMVI melanoma
# [58] = system: SW-620 colon
# [59] = system: MDA-MB-231 breast
smiles,measurement,setting,value
COc1ccc2[nH]c(=O)c(CSc3nccc(-c4ccc(OC)c(OC)c4)n3)cc2c1,GI50,[1],14.2 µM
same,TGI,[1],41.2 µM
same,GI50,[2],14.7 µM
same,TGI,[2],37.5 µM
same,GI50,[3],17.6 µM
same,TGI,[3],45.4 µM
same,GI50,[4],12.7 µM
same,TGI,[4],40.8 µM
same,GI50,[5],18.7 µM
same,TGI,[5],43 µM
same,GI50,[6],7.33 µM
same,TGI,[6],29.6 µM
same,GI50,[7],15.4 µM
same,TGI,[7],33.8 µM
same,GI50,[8],19.1 µM
same,TGI,[8],53.5 µM
same,GI50,[9],12.3 µM
same,TGI,[9],25.7 µM
same,GI50,[10],15.4 µM
same,TGI,[10],46.9 µM
same,GI50,[11],18.4 µM
same,TGI,[11],51.3 µM
same,GI50,[12],21 µM
same,TGI,[12],> 100 µM
same,GI50,[13],25.5 µM
same,TGI,[13],60.7 µM
same,GI50,[14],11.2 µM
same,TGI,[14],42.7 µM
same,GI50,[15],2.01 µM
same,TGI,[15],8.63 µM
same,GI50,[16],15.9 µM
same,TGI,[16],> 100 µM
same,GI50,[17],12.9 µM
same,TGI,[17],44 µM
same,GI50,[18],28.9 µM
same,TGI,[18],99.9 µM
same,GI50,[19],11 µM
same,TGI,[19],32.8 µM
same,GI50,[20],10.9 µM
same,TGI,[20],67.4 µM
same,GI50,[21],6.26 µM
same,TGI,[21],88 µM
same,GI50,[22],35.2 µM
same,TGI,[22],> 100 µM
same,GI50,[23],11.9 µM
same,TGI,[23],25.7 µM
same,GI50,[24],23.7 µM
same,TGI,[24],73.8 µM
same,GI50,[25],12.5 µM
same,TGI,[25],37.1 µM
same,GI50,[26],10.4 µM
same,TGI,[26],23.7 µM
same,GI50,[27],14.3 µM
same,TGI,[27],32.4 µM
same,GI50,[28],17.4 µM
same,TGI,[28],40.3 µM
same,GI50,[29],12.1 µM
same,TGI,[29],24.4 µM
same,GI50,[30],17.7 µM
same,TGI,[30],41.6 µM
same,GI50,[31],32.1 µM
same,TGI,[31],> 100 µM
same,GI50,[32],9.07 µM
same,TGI,[32],42.9 µM
same,GI50,[33],14.5 µM
same,TGI,[33],36 µM
same,GI50,[34],10.5 µM
same,TGI,[34],> 100 µM
same,GI50,[35],21.8 µM
same,TGI,[35],62.1 µM
same,GI50,[36],18.1 µM
same,TGI,[36],57.6 µM
same,GI50,[37],16.4 µM
same,TGI,[37],37.3 µM
same,GI50,[38],20.9 µM
same,TGI,[38],91.5 µM
same,GI50,[39],15.1 µM
same,TGI,[39],51.3 µM
same,GI50,[40],17.2 µM
same,TGI,[40],43 µM
same,GI50,[41],25.5 µM
same,TGI,[41],74.4 µM
same,GI50,[42],15.2 µM
same,TGI,[42],37.3 µM
same,GI50,[43],9.51 µM
same,TGI,[43],37.4 µM
same,GI50,[44],13.3 µM
same,TGI,[44],33.7 µM
same,GI50,[45],5.84 µM
same,TGI,[45],32.2 µM
same,GI50,[46],3.43 µM
same,TGI,[46],25.9 µM
same,GI50,[47],6.08 µM
same,TGI,[47],40.1 µM
same,GI50,[48],19.5 µM
same,TGI,[48],40 µM
same,GI50,[49],14.7 µM
same,TGI,[49],47.8 µM
same,GI50,[50],17.7 µM
same,TGI,[50],38.5 µM
same,GI50,[51],15.7 µM
same,TGI,[51],49.2 µM
same,GI50,[52],16.5 µM
same,TGI,[52],78.2 µM
same,GI50,[53],22.4 µM
same,TGI,[53],> 100 µM
same,GI50,[54],20.3 µM
same,TGI,[54],41.5 µM
same,GI50,[55],15 µM
same,TGI,[55],35.3 µM
COC(=O)c1ccc(-n2cc(CCCN(CCNc3ccnc4cc(Cl)ccc34)C(=O)CCC(=O)O[C@@H]3O[C@@H]4OC5(C)CC[C@H]6[C@H](C)CC[C@@H]([C@H]3C)[C@@]46OO5)nn2)cc1,GI50,[1],1.76 µM
same,TGI,[1],> 10.8 µM
same,GI50,[2],> 10.8 µM
same,TGI,[2],> 10.8 µM
same,GI50,[3],0.633 µM
same,TGI,[3],> 10.8 µM
same,GI50,[4],1.11 µM
same,TGI,[4],> 10.8 µM
same,GI50,[5],0.444 µM
same,TGI,[5],2.32 µM
same,GI50,[6],0.247 µM
same,TGI,[6],7.23 µM
same,GI50,[7],3.74 µM
same,TGI,[7],> 10.8 µM
same,GI50,[8],0.796 µM
same,TGI,[8],> 10.8 µM
same,GI50,[9],3.15 µM
same,TGI,[9],> 10.8 µM
same,GI50,[10],0.246 µM
same,TGI,[10],2.13 µM
same,GI50,[11],> 10.8 µM
same,TGI,[11],> 10.8 µM
same,GI50,[12],0.55 µM
same,TGI,[12],3.85 µM
same,GI50,[13],> 10.8 µM
same,TGI,[13],> 10.8 µM
same,GI50,[14],1.68 µM
same,TGI,[14],> 10.8 µM
same,GI50,[56],0.751 µM
same,TGI,[56],> 10.8 µM
same,GI50,[15],0.28 µM
same,TGI,[15],2.82 µM
same,GI50,[16],0.314 µM
same,TGI,[16],4.09 µM
same,GI50,[17],0.827 µM
same,TGI,[17],> 10.8 µM
same,GI50,[18],0.89 µM
same,TGI,[18],> 10.8 µM
same,GI50,[19],6.83 µM
same,TGI,[19],> 10.8 µM
same,GI50,[20],0.254 µM
same,TGI,[20],> 10.8 µM
same,GI50,[21],0.189 µM
same,TGI,[21],> 10.8 µM
same,GI50,[22],0.334 µM
same,TGI,[22],1.6 µM
same,GI50,[23],0.0917 µM
same,TGI,[23],> 10.8 µM
same,GI50,[24],0.508 µM
same,TGI,[24],3.63 µM
same,GI50,[57],0.429 µM
same,TGI,[57],6 µM
same,GI50,[25],0.541 µM
same,TGI,[25],> 10.8 µM
same,GI50,[26],1.03 µM
same,TGI,[26],> 10.8 µM
same,GI50,[27],> 10.8 µM
same,TGI,[27],> 10.8 µM
same,GI50,[28],6.15 µM
same,TGI,[28],> 10.8 µM
same,GI50,[29],1.87 µM
same,TGI,[29],> 10.8 µM
same,GI50,[30],1.88 µM
same,TGI,[30],> 10.8 µM
same,GI50,[31],0.355 µM
same,TGI,[31],> 10.8 µM
same,GI50,[32],0.216 µM
same,TGI,[32],4.45 µM
same,GI50,[33],> 10.8 µM
same,TGI,[33],> 10.8 µM
same,GI50,[34],0.506 µM
same,TGI,[34],> 10.8 µM
same,GI50,[35],0.319 µM
same,TGI,[35],> 10.8 µM
same,GI50,[36],2 µM
same,TGI,[36],> 10.8 µM
same,GI50,[37],0.442 µM
same,TGI,[37],> 10.8 µM
same,GI50,[38],1.79 µM
same,TGI,[38],> 10.8 µM
same,GI50,[39],2.4 µM
same,TGI,[39],> 10.8 µM
same,GI50,[40],3.24 µM
same,TGI,[40],> 10.8 µM
same,GI50,[41],2.65 µM
same,TGI,[41],> 10.8 µM
same,GI50,[42],0.397 µM
same,TGI,[42],> 10.8 µM
same,GI50,[43],0.755 µM
same,TGI,[43],2.41 µM
same,GI50,[58],0.375 µM
same,TGI,[58],> 10.8 µM
same,GI50,[44],> 10.8 µM
same,TGI,[44],> 10.8 µM
same,GI50,[45],0.619 µM
same,TGI,[45],10.3 µM
same,GI50,[46],1.01 µM
same,TGI,[46],> 10.8 µM
same,GI50,[48],1.25 µM
same,TGI,[48],2.75 µM
same,GI50,[49],2.58 µM
same,TGI,[49],> 10.8 µM
same,GI50,[59],6.84 µM
same,TGI,[59],> 10.8 µM
same,GI50,[50],0.519 µM
same,TGI,[50],> 10.8 µM
same,GI50,[51],0.155 µM
same,TGI,[51],> 10.8 µM
same,GI50,[52],0.546 µM
same,TGI,[52],> 10.8 µM
same,GI50,[53],0.805 µM
same,TGI,[53],> 10.8 µM
same,GI50,[54],1.33 µM
same,TGI,[54],> 10.8 µM
same,GI50,[55],0.72 µM
same,TGI,[55],> 10.8 µM
